Consider three compounds from ChEMBL document CHEMBL1146197, “Evolution of TEM-type enzymes: biochemical and genetic characterization of two new complex mutant TEM enzymes, TEM-151 and TEM-152, from a single patient” (Antimicrob Agents Chemother, 2007).

Each structure is given as a SMILES string. ≈ marks a conversion by molar mass, not a printed value.

Assay [1] is described as follows: Inhibition of Escherichia coli BL21(DE3) beta-lactamase TEM36.
The nature of assay [2]: Inhibition of Escherichia coli BL21(DE3) beta-lactamase TEM1.
Assay [3] is described as follows: Inhibition of Escherichia coli BL21(DE3) beta-lactamase TEM29.
The nature of assay [4]: Inhibition of Escherichia coli BL21(DE3) beta-lactamase TEM152.
Assay [5] can be described thus: Inhibition of Escherichia coli BL21(DE3) beta-lactamase TEM28.
The nature of assay [6]: Inhibition of Escherichia coli BL21(DE3) beta-lactamase TEM151.
The test system of assay [7] is Escherichia coli. The assay can be described thus: Antimicrobial activity against recombinant Escherichia coli DH5-alpha isolate expressing pBK-TEM-36 and IRT by disk diffusion assay. The format is functional. Particulars: DH5alpha.
For assay [8], the system named is Escherichia coli. The assay can be described thus: Antimicrobial activity against Escherichia coli DH5-alpha TC1295 isolate expressing TEM-1 by […]. The format is functional. The settings on record: DH5alpha.
Assay [9] concerns Escherichia coli. In words: Activity of Escherichia coli BL21(DE3) beta-lactamase TEM28.
Assay [10] concerns Escherichia coli. In words: Activity of Escherichia coli BL21(DE3) beta-lactamase TEM36.
The subject of assay [11] is Escherichia coli. The assay can be described thus: Antimicrobial activity against Escherichia coli DH5-alpha CF1295 isolate expressing CMT and TEM1 by […]. The format is functional. The settings on record: DH5alpha.
Assay [12] relates to Escherichia coli. In words: Antimicrobial activity against recombinant Escherichia coli DH5-alpha isolate expressing pBK-TEM-1 and TEM1 by disk diffusion assay. The format is functional. The settings on record: DH5alpha.
Assay [13] deals with Escherichia coli. In words: microbe, parasite or virus in culture. The format is functional. The settings on record: DH5alpha.
Description: Antimicrobial activity against recombinant Escherichia coli DH5-alpha CL1179 isolate expressing pBK-TEM-152 and CMT by disk diffusion assay
The test system of assay [14] is Escherichia coli. In words: Antimicrobial activity against Escherichia coli DH5-alpha CF1179 isolate expressing CMT and TEM1 by […]. The format is functional. The settings on record: DH5alpha.
Assay [15] concerns Escherichia coli. The assay can be described thus: Activity of Escherichia coli BL21(DE3) beta-lactamase TEM29.
The subject of assay [16] is Escherichia coli. The assay can be described thus: Activity of Escherichia coli BL21(DE3) beta-lactamase TEM151.
For assay [17], the system named is Escherichia coli. In words: Antimicrobial activity against Escherichia coli DH5-alpha isolate expressing pBK-CMV by […]. The format is functional. The settings on record: DH5alpha.
In assay [18] the test system is Escherichia coli. The assay can be described thus: Antimicrobial activity against recombinant Escherichia coli DH5-alpha isolate expressing pBK-TEM-29 and ESBL by disk diffusion assay. The format is functional. Particulars: DH5alpha.
Assay [19] has as its system Escherichia coli. The assay can be described thus: Antimicrobial activity against Escherichia coli DH5-alpha TC1179 isolate expressing TEM-1 by […]. The format is functional. Particulars: DH5alpha.
Assay [20] deals with Escherichia coli. The assay can be described thus: Activity of Escherichia coli BL21(DE3) beta-lactamase TEM1.
Assay [21] deals with Escherichia coli. In words: microbe, parasite or virus in culture. In kind it is functional. Particulars: DH5alpha. This is another data set of the same source.
Description: Antimicrobial activity against recombinant Escherichia coli DH5-alpha CL1295 isolate expressing pBK-TEM-151 and CMT by disk diffusion assay
In assay [22] the test system is Escherichia coli. The assay can be described thus: Activity of Escherichia coli BL21(DE3) beta-lactamase TEM152.
Assay [23] deals with Escherichia coli. The assay can be described thus: Antimicrobial activity against recombinant Escherichia coli DH5-alpha isolate expressing pBK-TEM-28 and ESBL by disk diffusion assay. The format is functional. The settings on record: DH5alpha.

Turning to `O=C(O)[C@H]1/C(=C/CO)O[C@@H]2CC(=O)N21` [CLAVULANIC ACID], the 50% inhibitory concentration (IC50) in assay [1] came out at 0.08 µM; in [2], 0.025 µM; in [3] it was 20.5 µM; in assay [4], 1 µM; in assay [5] it was 0.02 µM; in [6], 0.17 µM.

Take `C[C@]1(Cn2ccnn2)[C@H](C(=O)O)N2C(=O)C[C@H]2S1(=O)=O` [TAZOBACTAM]: the IC50 in [1] came to 0.13 µM; in [2], 0.03 µM; in assay [3], 2.4 µM; in [4], 0.4 µM; in assay [5], 0.02 µM; in assay [6], 0.27 µM.

`CCN1CCN(C(=O)N[C@@H](C(=O)N[C@@H]2C(=O)N3[C@@H]2SC(C)(C)[C@@H]3C(=O)O)c2ccccc2)C(=O)C1=O` [PIPERACILLIN]: the MIC in assay [7] is greater than 2050 mg/L; in assay [8], 512 mg/L (≈ 989 µM); in assay [11], 512 mg/L (≈ 989 µM); in assay [12], 512 mg/L; in [13], greater than 2050 mg/L; in assay [14], greater than 2050 mg/L. Further, the MIC in assay [17] was 2 mg/L (≈ 3.86 µM); in assay [18], 1020 mg/L; in [19], 512 mg/L (≈ 989 µM); in [21] it was 256 mg/L (≈ 495 µM); in assay [23], greater than 2050 mg/L. In addition, the Km was 27 µM in [9]; 170 µM in assay [10]; 39 µM in [15]; 44 µM in [16]; 55 µM in assay [20]; 50 µM in assay [22]. Moreover, the turnover number (kcat) stood at 213 s⁻¹ in assay [9]; 1220 s⁻¹ in [10]; 336 s⁻¹ in assay [15]; 172 s⁻¹ in assay [16]; 1250 s⁻¹ in assay [20]; 306 s⁻¹ in assay [22]. Besides, the kcat/Km in [9] came out at 7.9e+06 M⁻¹ s⁻¹; in assay [10] it was 7.1e+06 M⁻¹ s⁻¹; in [15], 8.6e+06 M⁻¹ s⁻¹; in assay [16], 3.9e+06 M⁻¹ s⁻¹; in assay [20], 2.3e+06 M⁻¹ s⁻¹; in assay [22] it was 6.12e+06 M⁻¹ s⁻¹.
